Values quoted from earlier work in patent US6548045B2, “Nitroimidazole substituted porphyrin complex” (Photochemical Co., Ltd., priority 1999, dated 2003).

What was measured:
anoxic tissues in tumor [1] = conditions: animal experiment implanting tumor
anoxic tissues in tumor [2] = conditions: in vivo
[3] = in vivo

COCC(O)Cn1ccnc1[N+](=O)[O-] (stereo not drawn) [Misonidazole]
efficacy compared with absence of the compound (anoxic tissues in tumor [1]): twice times more efficacies | efficacy in the human being (anoxic tissues in tumor [2]): no efficacy is observed | neurotoxicity [3]: high neurotoxin
